# From US6635265B1, “Materials and methods useful for the control of insect larvae” (University of Florida Research Foundation, Inc., priority 1999, dated 2003)
# Square brackets hold non-standard residues; d marks the D form. Ends that are not written are not given here.
# Legend:
# [1] = tested on: mosquito larvae; test: Feeding TMOF and its analogue peptides to mosquito larvae (LD50); assay type: in vivo, Aedes aegypti; conditions: 100 μl microtiter plates, 7 days, diet of autoclaved yeast (1 mg/ml)
# Description: TMOF can traverse the gut epithelium, enter the hemolymph and bind a gut receptor (Borovsky, D. and F. Mahmood (1995) “Feeding the mosquito Aedes aegypti with TMOF and its analogs; effect on trypsin biosynthesis and egg development,” Regulatory Peptides 57:273-281.; Borovsky, D., C. A. Powell, J. K. Nayar, J. E. Blalock, and T. K. Hayes (1994) “Characterization and localization of mosquito-gut receptors for trypsin modulating oostatic factor using complementary peptide immunochemistry” FASEB J. 8:350-355.). […] This characteristic permits testing of TMOF and its analogs by feeding them to mosquito and other pest larvae. To determine whether truncated TMOF peptides have an effect on larval growth and development, a series of peptides were synthesized and tested by feeding them to mosquito larvae at concentrations of 0.5 to 5.0 mg/ml (Table 1). Individual, newly hatched Aedes aegypti larvae were maintained in separate microtiter wells on a diet of autoclaved yeast (1 mg/ml). The diet was supplemented with TMOF peptides (Table 1). An identical number of larvae which were maintained on yeast served as a control. […] All control groups survived and larval growth and development was normal. Since larvae swallow only a small portion of the yeast particles that adsorbed the peptides, it is assumed that approximately 1 to 20 ng are taken orally at the high concentrations.
# [2] = tested on: trypsin biosynthesis; test: Injecting TMOF-R analogues into second instar Heliothis virescens: trypsin biosynthesis (BApNA); assay type: in vivo; conditions: second instar larvae, 24 hours after injection
# Description: TMOF analogues (5 to 8 amino acids in length, and polymers of these analogues) in which Arg was added at the C-terminus were evaluated to determine their effect on larval growth and development. A series of analogues were synthesized and tested by feeding them to mosquito larvae at concentrations of (0.5 to 5.0 mg/ml; Table 4). Concentrations of 2.0 to 0.065 mg/ml were used to feed mosquito larvae and calculate the Lethal Dose at 50% mortality (LD50; Table 4) of the TMOF analogues. […] In both cases larval death and trypsin biosynthesis inhibition was noted (Table 4 and 5). […] The advantage of using short analogues connected by Arg is that they can be digested in the gut into short TMOF analogues that can penetrate the midgut much faster than longer analogues.
# Individual second instar larvae of H. virescens were injected with TMOF-R analogues (10 to 0.25 μg per larva) and maintained in separate plastic cups on artificial diet. Twenty-four hours after the injections 3 groups of larvae (3 per group) were assayed for trypsin biosynthesis using BApNA (trypsin specific substrate; Table 5).
# [3] = tested on: fourth instar Heliothis virescens; test: Feeding TMOF analogs to fourth instar H. virescens: larval weight; assay type: in vivo; conditions: fourth instar larvae fed synthetic food and 0.8 mg of TMOF analogs for 5 days
# Description: In both cases a reduction in weight gain and trypsin inhibition was noted (Tables 3 and 4).
# (§1) Larvae were fed for 5 to 14 days and larval weight and trypsin activity were measured at the end of the experimental periods. […] When first instar larvae were fed for 14 days on analogs 15 and 16 (Table 4), an 18% and 26% reduction in weight was observed.
# [4] = tested on: trypsin biosynthesis; test: Feeding TMOF analogs to fourth instar H. virescens: gut trypsin biosynthesis ([3H]DFP); assay type: in vivo, Heliothis virescens; conditions: guts of fourth instar larvae after 5 days feeding on 0.8 mg of TMOF analogs
# Description: as §1
# [5] = tested on: first instar H. virescens larvae; test: Feeding of first instar H. virescens on TMOF analogs for 14 days; assay type: in vivo, Heliothis virescens; conditions: first instar larvae fed individually 1.6 µg of TMOF analogs for 14 days
substance,measurement,setting,value
(D)YDP ([dY]-Asp-Pro) [43],LD50 mM ± S.E.M.,[1],3 0.51 ± 0.05 mM
(D)YDPAP ([dY]DPAP) [46],LD50 mM ± S.E.M.,[1],3 0.56 ± 0.03 mM
(DPAR)4,Inhibition (% ± S.E.M.) of trypsin biosynthesis,[2]; 0.5 μg/injection,3 ± 0.3%
same,Inhibition (% ± S.E.M.) of trypsin biosynthesis,[2]; 1 μg/injection,35 ± 7%
same,Inhibition (% ± S.E.M.) of trypsin biosynthesis,[2]; 10 μg/injection,58 ± 36%
AAP (TMOF peptide) [16],LD50 mM ± S.E.M.,[1],3 1.08 ± 0.07 mM
ADAAP (TMOF peptide) [56],Weight Gain,[3],174.1 mg
same,Weight mg ± S.E.M. End,[3],209.7 ± 12 mg
same,Inhibition (% ± S.E.M.) of trypsin biosynthesis,[4],5 ± 0.6%
same,Trypsin μg ± S.E.M.,[4],2.4 ± 0.3 µg
same,Number of Dead Larvae,[5],0
same,Weight (mg) ± S.E.M.,[5],141 ± 9 mg
same,Weight Reduction (%) ± S.E.M.,[5],7 ± 0.4%
ADP (TMOF peptide) [17],LD50 mM ± S.E.M.,[1],3 > 6.6 mM
ADPAP (TMOF peptide) [18],LD50 mM ± S.E.M.,[1],4 2.0 ± 0.36 mM
APA (TMOF peptide) [19],LD50 mM ± S.E.M.,[1],3 1.0 ± 0.07 mM
DAA (TMOF peptide) [20],LD50 mM ± S.E.M.,[1],3 0.91 ± 0.06 mM
DPA,LD50 mM ± S.E.M.,[1],3 0.4 ± 0.03 mM
DPAR (TMOF-R analogue peptide) [60],Inhibition (% ± S.E.M.) of trypsin biosynthesis,[2]; 1 μg/injection,17 ± 2%
same,Inhibition (% ± S.E.M.) of trypsin biosynthesis,[2]; 10 μg/injection,100%
DYP (TMOF peptide) [24],LD50 mM ± S.E.M.,[1],4 1.27 ± 0.17 mM
same,Weight Gain,[3],180.5 mg
same,Weight mg ± S.E.M. End,[3],216.7 ± 13 mg
same,Inhibition (% ± S.E.M.) of trypsin biosynthesis,[4],14 ± 1.8%
same,Trypsin μg ± S.E.M.,[4],2.2 ± 0.3 µg
same,Number of Dead Larvae,[5],1
same,Weight (mg) ± S.E.M.,[5],149 ± 9 mg
same,Weight Reduction (%) ± S.E.M.,[5],9 ± 0.5%
FAP (TMOF peptide) [25],LD50 mM ± S.E.M.,[1],3 3.8 ± 0.23 mM
FDP (TMOF peptide) [26],LD50 mM ± S.E.M.,[1],3 1.98 ± 0.6 mM
FDPAP (TMOF peptide) [27],LD50 mM ± S.E.M.,[1],3 0.37 ± 0.15 mM
FSP (TMOF peptide) [28],LD50 mM ± S.E.M.,[1],3 2.3 ± 0.13 mM
MPDYP5 (MPDYPPPPP; TMOF peptide) [29],LD50 mM ± S.E.M.,[1],3 > 3.0 mM
PAA (TMOF peptide) [30],LD50 mM ± S.E.M.,[1],3 2.4 ± 0.34 mM
PAP (TMOF peptide) [31],LD50 mM ± S.E.M.,[1],3 3.17 ± 0.14 mM
Y(D)DP (Tyr-[dD]-Pro) [32],LD50 mM ± S.E.M.,[1],3 0.28 ± 0.01 mM
Y(D)DPAP (Y[dD]PAP) [33],LD50 mM ± S.E.M.,[1],3 1.2 ± 0.3 mM
same,Weight Gain,[3],153 mg
same,Weight mg ± S.E.M. End,[3],188 ± 12 mg
same,Inhibition (% ± S.E.M.) of trypsin biosynthesis,[4],15 ± 1.3%
same,Trypsin μg ± S.E.M.,[4],2.1 ± 0.2 µg
same,Number of Dead Larvae,[5],1
same,Weight (mg) ± S.E.M.,[5],152 ± 27 mg
same,Weight Reduction (%) ± S.E.M.,[5],7 ± 1%
YAP (TMOF peptide) [34],LD50 mM ± S.E.M.,[1],3 2.3 ± 0.5 mM
YAPAP (TMOF peptide) [62],LD50 mM ± S.E.M.,[1],3 0.54 ± 0.13 mM
